Assay results published in patent publication US11242539B2, “Elite event EE-GM4 and methods and kits for identifying such event in biological samples” (priority 2016, dated 2022).

System: soybean plants containing event EE-GM4
Assay: HPPD inhibitor herbicide tolerance field trials (maximum phytotoxicity)
Format: in vivo, Glycine max
Conditions: for average maximum phytotoxicity value: several field trials across 2 years; for tolerance of plants with EE-GM4 to herbicide: field
Source text: Numbers in ( ) below a treatment give the number of trials included in the bar, the number on top of each bar gives the average maximum phytotoxicity value for that treatment. Treatments applied were: IFT=isoxaflutole, MST=mesotrione, PE=pre-emergence, PO=post-emergence (at V2-V3 stage, with adjuvants crop oil concentrate and ammonium sulfate added to increase herbicide activity). Rates shown are in gram active ingredient/hectare (4× dose in pre-emergence, 2× dose in post-emergence).
Tolerance of plants comprising EE-GM4 to HPPD inhibitor herbicides was tested at different locations in the field over 2 years. […] All post-emergence treatments were at the V2-V3 stage, with adjuvants crop oil concentrate and ammonium sulfate added to increase herbicide activity.
The “maximum phytotoxicity” as used herein is the highest phytotoxicity rating recorded at any observation during the duration of a trial (with 3 to 4 observations per trial). In existing weed control applications, a normal (lx) dose for isoxaflutole (IFT) in pre- or post-emergence application and for MST in post-emergence application is 105 gr/ha, and a normal (1×) dose for mesotrione in pre-emergence application is 210 gr/ha.
Also, in several field trials across 2 years, soybean plants with event EE-GM4 had good tolerance towards experimental HPPD inhibitor compound 2-methyl-N-(5-methyl-1,3,4-oxadiazol-2-yl)-3-(methylsulfonyl)-4-(trifluoromethyl)benzamide (U.S. Pat. No. 9,101,141) when applied pre-emergence at 400 gr ai/ha or post-emergence at 200 gr ai/ha, respectively (the average maximum phytotoxicity value for each treatment was below 20%). […] All post-emergence treatments were at the V2-V3 stage, with adjuvants crop oil concentrate and ammonium sulfate added to increase herbicide activity.

[1] = applied post-emergence at V2-V3 stage with crop oil concentrate and ammonium sulfate, over 2 years
[2] = applied pre-emergence, different locations over 2 years

Row | SMILES | average maximum phytotoxicity value (post-emergence at 200 gr ai/ha, V2-V3 stage with adjuvants) | average maximum phytotoxicity value (pre-emergence at 400 gr ai/ha) | tolerance of plants with EE-GM4 to herbicide [1] | tolerance of plants with EE-GM4 to herbicide [2] | average maximum phytotoxicity (post-emergence at 100-150 gr ai/ha, V2-V3 stage with adjuvants)
1 | Cc1nnc(NC(=O)c2ccc(C(F)(F)F)c(S(C)(=O)=O)c2C)o1 [2-methyl-N-(5-methyl-1,3,4-oxadiazol-2-yl)-3-(methylsulfonyl)-4-(trifluoromethyl)benzamide] | below 20% | below 20% |  |  | 
2 | CS(=O)(=O)c1ccc(C(=O)C2C(=O)CCCC2=O)c([N+](=O)[O-])c1 [mesotrione, 2-[4-(Methylsulfonyl)-2-nitrobenzoyl]cyclohexane-1,3-dione] |  |  | commercially relevant tolerance | commercially relevant tolerance | 
3 | CS(=O)(=O)c1cc(C(F)(F)F)ccc1C(=O)c1cnoc1C1CC1 [isoxaflutole, (5-cyclopropyl-4-isoxazolyl)[2-(methylsulfonyl)-4-(trifluoromethyl)phenyl]methanone] |  |  | crop damage was a bit higher | commercially relevant tolerance | 
4 | CSc1c(C(F)(F)F)ccc(C(=O)Nc2nnnn2C)c1Cl [2-chloro-3-(methylsulfanyl)-N-(1-methyl-1H-tetrazol-5-yl)-4-(trifluoromethyl)benzamide] |  |  |  |  | 30%
